Measurements taken from ChEMBL document CHEMBL1201862, “PubChem BioAssay data set” (2004).
Calls of active or inactive are those of the source.

Key:
[1] = target: T1, Tyrosine-protein phosphatase non-receptor type 22 (Homo sapiens, UniProt Q9Y2R2); experiment: PTPN22 phosphatase inhibition, dose response, selectivity assay for STEP inhibitor project, biochemical (AID 624241); type: functional
T1 sequence (Q9Y2R2 whole entry): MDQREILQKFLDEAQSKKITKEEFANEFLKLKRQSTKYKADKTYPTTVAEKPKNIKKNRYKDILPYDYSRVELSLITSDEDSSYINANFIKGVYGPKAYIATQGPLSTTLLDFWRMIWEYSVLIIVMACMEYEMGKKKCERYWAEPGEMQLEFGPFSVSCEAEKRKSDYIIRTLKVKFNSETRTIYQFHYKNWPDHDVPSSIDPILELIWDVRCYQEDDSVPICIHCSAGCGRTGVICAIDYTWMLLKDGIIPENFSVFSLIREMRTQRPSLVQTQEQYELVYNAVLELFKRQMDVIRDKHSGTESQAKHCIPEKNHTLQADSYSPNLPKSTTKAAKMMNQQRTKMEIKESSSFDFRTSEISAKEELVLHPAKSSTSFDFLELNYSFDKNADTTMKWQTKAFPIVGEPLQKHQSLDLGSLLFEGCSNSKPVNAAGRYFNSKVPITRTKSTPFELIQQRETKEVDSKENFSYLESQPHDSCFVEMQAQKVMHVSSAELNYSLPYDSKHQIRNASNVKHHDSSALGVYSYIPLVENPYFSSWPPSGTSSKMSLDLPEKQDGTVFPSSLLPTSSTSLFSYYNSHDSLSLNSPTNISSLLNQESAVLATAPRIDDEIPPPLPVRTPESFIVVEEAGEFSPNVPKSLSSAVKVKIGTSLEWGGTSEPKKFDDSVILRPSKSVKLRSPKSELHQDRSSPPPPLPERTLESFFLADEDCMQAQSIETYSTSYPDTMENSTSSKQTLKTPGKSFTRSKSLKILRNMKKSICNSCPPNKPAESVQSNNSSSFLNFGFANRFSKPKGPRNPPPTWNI

[2] = target: T2, Small ubiquitin-related modifier 1 (Homo sapiens, UniProt P63165); experiment: inhibitors of SUMO1 peptide binding, dose response, biochemical, fluorescence polarization, uHTS hits (AID 624382); type: functional; details: read-out: IC50_Mean
[3] = target: T3, Corticotropin-releasing factor receptor 2/Corticotropin-releasing factor-binding protein (Homo sapiens, UniProt P24387+Q13324); experiment: activators of CRF receptor 2 with binding protein – uHTS hits, confirmation (AID 602473); type: functional; details: read-out: EC50_Mean
T3 sequence (Q13324 whole entry): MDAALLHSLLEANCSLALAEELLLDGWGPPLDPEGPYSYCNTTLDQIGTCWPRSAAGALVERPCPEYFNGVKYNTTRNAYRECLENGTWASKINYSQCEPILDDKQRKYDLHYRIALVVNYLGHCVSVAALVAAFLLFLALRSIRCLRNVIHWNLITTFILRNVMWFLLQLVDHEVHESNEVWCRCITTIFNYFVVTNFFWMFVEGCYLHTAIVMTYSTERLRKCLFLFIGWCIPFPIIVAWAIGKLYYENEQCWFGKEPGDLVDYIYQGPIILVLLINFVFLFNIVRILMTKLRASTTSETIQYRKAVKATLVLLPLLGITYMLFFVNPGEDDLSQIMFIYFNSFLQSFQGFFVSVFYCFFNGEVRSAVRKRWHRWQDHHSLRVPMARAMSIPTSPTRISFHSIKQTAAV
T3 sequence (P24387 whole entry): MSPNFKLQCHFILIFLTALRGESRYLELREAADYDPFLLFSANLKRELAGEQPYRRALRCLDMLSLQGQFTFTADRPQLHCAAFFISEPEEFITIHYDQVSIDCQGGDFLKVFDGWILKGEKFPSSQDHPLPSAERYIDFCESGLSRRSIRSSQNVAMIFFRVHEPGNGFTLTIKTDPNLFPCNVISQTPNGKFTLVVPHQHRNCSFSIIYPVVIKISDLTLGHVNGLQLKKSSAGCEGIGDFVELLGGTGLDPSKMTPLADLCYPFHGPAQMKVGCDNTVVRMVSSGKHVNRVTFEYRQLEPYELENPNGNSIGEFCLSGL

[4] = target: T4, Carboxy-terminal domain RNA polymerase II polypeptide A small phosphatase 1 (Homo sapiens, UniProt Q9GZU7); experiment: inhibitors of CTDSP1, concentration-response testing, biochemical assay, absorbance-based, actives from ultra-high-throughput screening (AID 540297); type: functional
T4 sequence (Q9GZU7 whole entry): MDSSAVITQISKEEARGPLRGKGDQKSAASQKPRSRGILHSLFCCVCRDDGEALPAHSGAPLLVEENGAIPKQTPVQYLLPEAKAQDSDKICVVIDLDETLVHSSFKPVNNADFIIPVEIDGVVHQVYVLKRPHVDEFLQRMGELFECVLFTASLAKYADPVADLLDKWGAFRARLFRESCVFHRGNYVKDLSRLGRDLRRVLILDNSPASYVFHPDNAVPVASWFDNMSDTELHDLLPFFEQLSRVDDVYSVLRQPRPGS

[5] = target: Tyrosine-protein phosphatase non-receptor type 11 (Homo sapiens, UniProt Q06124); experiment: SHP2 phosphatase inhibition, dose response, selectivity assay for STEP inhibitor project, biochemical (AID 602367); type: functional; details: read-out: IC50_Mean
[6] = target: Tyrosine-protein phosphatase non-receptor type 5 (Homo sapiens, UniProt P54829); experiment: STEP phosphatase inhibitors, confirmation, biochemical, fluorescence intensity, uHTS hits (AID 602372); type: functional; details: read-out: IC50_Mean
[7] = target: T3, Corticotropin-releasing factor receptor 2/Corticotropin-releasing factor-binding protein; experiment: Dose Response confirmation of uHTS hits for small molecule antagonists of the CRF-binding protein and CRF-R2 receptor complex.; type: functional; details: read-out: IC50_Mean
[8] = target: Dual specificity protein phosphatase 3 (Homo sapiens, UniProt P51452); experiment: VHR phosphatase inhibition, dose response, selectivity assay for STEP inhibitor project, biochemical (AID 602374); type: functional; details: read-out: IC50_Mean
[9] = target: T2, Small ubiquitin-related modifier 1; experiment: inhibitors of SUMO1 partner interactions, dose response, biochemical, FRET (AID 624383); type: functional; details: read-out: IC50_Mean
[10] = target: 5-hydroxytryptamine receptor 2A (Mus musculus, UniProt P35363); type: functional, cell-based;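 further: CHO-K1 cells with tagged receptor and beta-arrestin; agonist potency measured as compound-induced activation of the receptor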
Mu-type opioid receptor = Mu-type opioid receptor (Homo sapiens, UniProt P35372); type: functional, cell-based;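 further: U2OS cells with beta-arrestin recruitment to OPRM1 by beta-gal complementation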
Kallikrein-7 = Kallikrein-7 (Homo sapiens, UniProt P49862); experiment: Fluorescence Intensity-based biochemical primary high throughput dose response assay to identify activators of kallikrein-7 (K7) zymogen.
[11] = target: T5, Calpain-2 catalytic subunit (Sus scrofa, UniProt P43367); experiment: pig calpain II inhibitor potency, dose response, biochemical, fluorogenic peptide substrate (AID 1420); type: functional
T5 sequence (P43367 whole entry): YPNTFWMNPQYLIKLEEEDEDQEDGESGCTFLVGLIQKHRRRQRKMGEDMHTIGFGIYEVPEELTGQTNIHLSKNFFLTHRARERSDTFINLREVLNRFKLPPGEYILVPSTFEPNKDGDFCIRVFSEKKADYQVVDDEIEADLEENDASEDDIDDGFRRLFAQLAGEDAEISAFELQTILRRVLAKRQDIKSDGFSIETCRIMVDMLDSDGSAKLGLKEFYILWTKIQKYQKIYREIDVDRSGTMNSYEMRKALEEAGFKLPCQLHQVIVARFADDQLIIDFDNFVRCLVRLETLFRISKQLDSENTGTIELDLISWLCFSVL

[12] = EDANS-DABCYL fluorescence interference, concentration series, dose response, artefact control for kallikrein-7 zymogen activator project, biochemical, fluorescence intensity, triplicate (AID 720493)
[13] = target: ADP-ribosylation factor GTPase-activating protein 1 (Rattus norvegicus, UniProt Q62848); experiment: Fluorescence polarization-based biochemical high throughput dose response screening assay to identify inhibitors of ADP-ribosylation factor GTPase activating protein 1 (ARFGAP1).; type: functional
[14] = target: Arf-GAP with SH3 domain, ANK repeat and PH domain-containing protein 1 (Homo sapiens, UniProt Q9ULH1); type: functional;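 further: biochemical fluorescence polarization dose–response screen measuring inhibition of ASAP1; ASAP1 GAP domain stimulating GTP hydrolysis by truncated human ARF1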
[15] = HepG2 cell cytotoxicity, dose response, cytotoxicity control, ATP luminescence, cherry-pick, set 6 (AID 1053125); type: functional, cell-based
cells [16] = details: HEK293;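 further: cells exposed to compound for 48 hours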
[17] = HEp-2 cell cytotoxicity, dose response, cytotoxicity control for RSV inhibitor project, HTS (AID 2410); type: functional; details: human respiratory syncytial virus
cells [18] = details: A549
[19] = target: T6, Methionyl-tRNA synthetase, putative (Trypanosoma brucei brucei, UniProt Q38C91); type: functional, Trypanosoma brucei brucei strain 927/4 GUTat10.1
[20] = target: T6, Methionyl-tRNA synthetase, putative; type: functional, Trypanosoma brucei brucei strain 927/4 GUTat10.1; remark: listed apart in the source
[21] = Counterscreen for inhibitors of Trypanosoma brucei methionyl tRNA synthetase (MetRS): Luminescence-based cell-based high throughput dose response assay to identify compounds that are cytotoxic to Jurkat human T lymphocyte cells.; type: functional
Albumin = Albumin (Bos taurus, UniProt P02769); experiment: Counterscreen for inhibitors of T-cell receptor (TCR)-CD3 interaction: Fluorescence-based biochemical high throughput dose response assay to identify inhibitors of T-cell receptor (TCR)-CD3 interaction using a TAMRA-labeled BSA probe.; type: functional
[22] = Luminescence Cell-Based Dose Retest to Confirm Inhibitors of Cancer Stem Cells. [Related pubchem assays (depositor defined):AID2717, AID2721]; type: functional; details: Homo sapiens
[23] = target: T7, Beta-2 adrenergic receptor (Homo sapiens, UniProt P07550); experiment: Dose response for HTS for Beta-2AR agonists via FAP method from Powderset3.; type: functional
[24] = target: T7, Beta-2 adrenergic receptor; experiment: beta2AR agonists driving receptor internalization, dose response, cell-based, FAP fluorogen, flow cytometry, cherry pick 1 (AID 588763); type: functional
HEK293 = experiment: HEK293T cell cytotoxicity, dose response, cytotoxicity control, ATP luminescence, cherry-pick samples (AID 687005); type: functional, cell-based; details: Homo sapiens;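 further: cells exposed to compound for 48 hours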
[25] = HEK293 Cytotoxicity Assay Measured in Cell-Based System Using Plate Reader - 7071-01_Inhibitor_Dose_CherryPick_Activity_Set2.; type: functional
HeLa = experiment: HeLa cell cytotoxicity, dose response, cytotoxicity control, ATP luminescence, cherry-pick samples (AID 687004); type: functional, cell-based; details: Homo sapiens
[26] = A Cell-Based Confirmatory Screen for Compounds that Inhibit VEEV, TC-83 (7).; type: functional
[27] = T. cruzi intracellular amastigote growth inhibition, dose response, imaging, CA-I/72 strain, bovine embryo skeletal muscle, dry powder (AID 651885); type: functional, cell-based
[28] = YAP1 pathway inhibition via CTGF transcript levels, dose response, cell-based, DLD1 colon cancer, RT-qPCR, cherry-pick (AID 1053122); type: functional; details: Cancer cell lines
[29] = HepG2 cell cytotoxicity, dose response, cytotoxicity control, luminescence, dry powder, set 5 (AID 743185); type: functional, cell-based
[30] = IRAP inhibitors, dose response, selectivity assay for ERAP1 modulator project, biochemical, Leu-AMC fluorescence, cherry-picked samples, set 2 (AID 743340)
[31] = HEK293 cell cytotoxicity, dose response, cytotoxicity control, HEK293T, ATP luminescence, dry powder (AID 652119); type: functional, cell-based
[32] = target: Protein disulfide-isomerase (Homo sapiens, UniProt P07237); experiment: PDI inhibitors, insulin turbidity readout, confirmation, biochemical, dry powder samples, set 2 (AID 652146)
Protein disulfide-isomerase, sequence (P07237 whole entry): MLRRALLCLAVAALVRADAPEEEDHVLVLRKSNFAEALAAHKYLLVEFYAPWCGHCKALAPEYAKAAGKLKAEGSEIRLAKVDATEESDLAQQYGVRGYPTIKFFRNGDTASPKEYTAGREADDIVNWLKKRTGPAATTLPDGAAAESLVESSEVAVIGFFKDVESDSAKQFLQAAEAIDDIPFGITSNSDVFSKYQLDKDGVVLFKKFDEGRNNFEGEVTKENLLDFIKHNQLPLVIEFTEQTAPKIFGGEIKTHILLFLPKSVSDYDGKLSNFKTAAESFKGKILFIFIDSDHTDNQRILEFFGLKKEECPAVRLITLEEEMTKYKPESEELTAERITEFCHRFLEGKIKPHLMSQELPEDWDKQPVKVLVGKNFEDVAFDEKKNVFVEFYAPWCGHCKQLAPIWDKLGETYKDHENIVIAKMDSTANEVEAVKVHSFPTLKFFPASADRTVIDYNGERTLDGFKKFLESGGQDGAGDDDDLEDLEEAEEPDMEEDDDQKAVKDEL

T7 sequence (P07550 whole entry): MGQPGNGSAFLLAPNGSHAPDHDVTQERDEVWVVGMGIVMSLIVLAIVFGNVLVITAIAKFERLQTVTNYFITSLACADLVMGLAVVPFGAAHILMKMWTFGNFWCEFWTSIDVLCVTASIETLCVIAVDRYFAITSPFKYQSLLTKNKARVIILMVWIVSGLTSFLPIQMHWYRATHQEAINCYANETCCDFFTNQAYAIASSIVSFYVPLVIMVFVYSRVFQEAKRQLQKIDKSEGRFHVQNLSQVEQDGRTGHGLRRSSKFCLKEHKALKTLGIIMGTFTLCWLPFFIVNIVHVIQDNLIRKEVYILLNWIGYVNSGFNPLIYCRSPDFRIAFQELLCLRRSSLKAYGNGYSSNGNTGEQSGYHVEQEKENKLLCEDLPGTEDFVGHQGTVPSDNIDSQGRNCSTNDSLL
T2 sequence (P63165 whole entry): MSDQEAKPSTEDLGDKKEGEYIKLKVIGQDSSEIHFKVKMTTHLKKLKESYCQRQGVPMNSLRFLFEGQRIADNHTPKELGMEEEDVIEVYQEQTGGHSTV
T6 sequence (Q38C91 whole entry): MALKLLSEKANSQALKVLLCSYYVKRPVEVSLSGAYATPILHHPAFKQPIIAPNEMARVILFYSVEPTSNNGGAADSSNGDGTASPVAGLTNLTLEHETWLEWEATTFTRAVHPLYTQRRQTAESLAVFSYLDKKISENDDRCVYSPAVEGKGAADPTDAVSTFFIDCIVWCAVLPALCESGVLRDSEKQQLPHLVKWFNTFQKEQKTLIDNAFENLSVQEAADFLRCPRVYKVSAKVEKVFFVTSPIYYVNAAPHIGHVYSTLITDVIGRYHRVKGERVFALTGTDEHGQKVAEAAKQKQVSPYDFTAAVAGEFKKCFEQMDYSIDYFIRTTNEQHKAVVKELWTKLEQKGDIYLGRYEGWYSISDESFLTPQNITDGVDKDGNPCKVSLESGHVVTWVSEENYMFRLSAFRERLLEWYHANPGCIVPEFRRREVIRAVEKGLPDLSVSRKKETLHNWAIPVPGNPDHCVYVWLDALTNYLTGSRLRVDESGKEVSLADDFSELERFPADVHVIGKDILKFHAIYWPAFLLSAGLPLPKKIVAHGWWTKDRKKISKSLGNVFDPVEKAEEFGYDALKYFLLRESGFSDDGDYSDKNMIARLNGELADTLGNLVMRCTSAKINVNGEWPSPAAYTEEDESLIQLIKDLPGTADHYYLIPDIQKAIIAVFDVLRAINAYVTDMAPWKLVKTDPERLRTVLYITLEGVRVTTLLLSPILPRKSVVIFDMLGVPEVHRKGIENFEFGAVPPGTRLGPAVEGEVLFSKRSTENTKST
5-hydroxytryptamine receptor 2A, sequence (P35363 whole entry): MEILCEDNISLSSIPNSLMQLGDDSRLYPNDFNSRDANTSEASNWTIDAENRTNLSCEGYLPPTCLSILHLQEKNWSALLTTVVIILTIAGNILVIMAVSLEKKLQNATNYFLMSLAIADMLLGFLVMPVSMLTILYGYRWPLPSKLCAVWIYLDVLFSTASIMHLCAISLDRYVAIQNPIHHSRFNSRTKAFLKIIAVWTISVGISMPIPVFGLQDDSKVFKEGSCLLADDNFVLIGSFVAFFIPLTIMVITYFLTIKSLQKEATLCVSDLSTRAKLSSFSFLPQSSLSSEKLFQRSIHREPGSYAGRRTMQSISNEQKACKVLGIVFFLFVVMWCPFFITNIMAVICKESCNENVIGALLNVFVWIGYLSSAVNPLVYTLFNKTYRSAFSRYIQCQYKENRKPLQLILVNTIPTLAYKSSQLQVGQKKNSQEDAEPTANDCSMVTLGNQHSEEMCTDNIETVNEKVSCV
Tyrosine-protein phosphatase non-receptor type 11, sequence (Q06124 whole entry): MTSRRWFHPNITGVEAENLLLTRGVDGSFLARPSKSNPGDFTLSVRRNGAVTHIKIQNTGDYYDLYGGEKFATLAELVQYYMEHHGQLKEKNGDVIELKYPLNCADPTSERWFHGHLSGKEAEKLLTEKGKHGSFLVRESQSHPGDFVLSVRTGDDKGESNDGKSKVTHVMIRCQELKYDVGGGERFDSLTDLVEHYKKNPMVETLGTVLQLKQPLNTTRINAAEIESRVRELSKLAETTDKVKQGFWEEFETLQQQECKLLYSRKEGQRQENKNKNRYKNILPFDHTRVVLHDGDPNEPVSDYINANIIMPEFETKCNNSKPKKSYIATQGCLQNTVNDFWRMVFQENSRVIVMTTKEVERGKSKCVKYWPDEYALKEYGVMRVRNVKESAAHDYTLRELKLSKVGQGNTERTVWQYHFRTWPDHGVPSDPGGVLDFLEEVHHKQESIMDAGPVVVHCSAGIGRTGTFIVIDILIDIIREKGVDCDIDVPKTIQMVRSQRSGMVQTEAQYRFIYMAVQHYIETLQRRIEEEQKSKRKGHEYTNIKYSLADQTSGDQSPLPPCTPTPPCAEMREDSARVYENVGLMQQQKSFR
Kallikrein-7, sequence (P49862 whole entry): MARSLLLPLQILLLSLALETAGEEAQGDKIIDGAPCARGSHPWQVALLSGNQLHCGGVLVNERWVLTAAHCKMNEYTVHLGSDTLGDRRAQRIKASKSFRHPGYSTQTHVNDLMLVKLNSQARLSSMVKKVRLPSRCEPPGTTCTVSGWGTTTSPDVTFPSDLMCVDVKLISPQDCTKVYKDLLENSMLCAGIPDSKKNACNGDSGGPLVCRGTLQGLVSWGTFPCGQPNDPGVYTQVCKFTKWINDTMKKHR
Tyrosine-protein phosphatase non-receptor type 5, sequence (P54829 whole entry): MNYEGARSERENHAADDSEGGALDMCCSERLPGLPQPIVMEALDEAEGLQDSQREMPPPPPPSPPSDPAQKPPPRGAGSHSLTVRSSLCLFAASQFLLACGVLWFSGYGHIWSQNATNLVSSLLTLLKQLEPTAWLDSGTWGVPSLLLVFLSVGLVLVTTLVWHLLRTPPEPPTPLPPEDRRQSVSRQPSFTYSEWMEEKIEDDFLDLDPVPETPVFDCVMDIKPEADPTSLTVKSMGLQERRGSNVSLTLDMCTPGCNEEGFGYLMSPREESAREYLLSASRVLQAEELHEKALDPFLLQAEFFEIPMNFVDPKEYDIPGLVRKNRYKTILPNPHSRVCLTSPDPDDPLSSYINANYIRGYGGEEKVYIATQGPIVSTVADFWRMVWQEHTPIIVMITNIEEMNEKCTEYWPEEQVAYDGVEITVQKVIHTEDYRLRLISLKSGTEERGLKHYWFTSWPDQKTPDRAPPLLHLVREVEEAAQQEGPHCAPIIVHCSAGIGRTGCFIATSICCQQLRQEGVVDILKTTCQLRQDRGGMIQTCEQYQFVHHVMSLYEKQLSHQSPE
ADP-ribosylation factor GTPase-activating protein 1, sequence (Q62848 whole entry, the tested form may be a part): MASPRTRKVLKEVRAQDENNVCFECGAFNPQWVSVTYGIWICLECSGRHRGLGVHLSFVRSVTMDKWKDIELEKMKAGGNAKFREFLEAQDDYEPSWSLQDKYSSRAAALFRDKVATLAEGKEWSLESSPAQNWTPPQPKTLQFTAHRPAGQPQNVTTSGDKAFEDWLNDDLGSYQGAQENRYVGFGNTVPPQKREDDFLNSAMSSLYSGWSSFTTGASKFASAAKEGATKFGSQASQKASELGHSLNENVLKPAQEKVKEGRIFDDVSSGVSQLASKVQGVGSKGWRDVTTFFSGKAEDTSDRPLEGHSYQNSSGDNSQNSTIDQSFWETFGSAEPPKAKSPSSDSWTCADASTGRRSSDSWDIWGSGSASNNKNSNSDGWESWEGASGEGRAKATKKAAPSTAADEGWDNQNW
Albumin, sequence (P02769 whole entry): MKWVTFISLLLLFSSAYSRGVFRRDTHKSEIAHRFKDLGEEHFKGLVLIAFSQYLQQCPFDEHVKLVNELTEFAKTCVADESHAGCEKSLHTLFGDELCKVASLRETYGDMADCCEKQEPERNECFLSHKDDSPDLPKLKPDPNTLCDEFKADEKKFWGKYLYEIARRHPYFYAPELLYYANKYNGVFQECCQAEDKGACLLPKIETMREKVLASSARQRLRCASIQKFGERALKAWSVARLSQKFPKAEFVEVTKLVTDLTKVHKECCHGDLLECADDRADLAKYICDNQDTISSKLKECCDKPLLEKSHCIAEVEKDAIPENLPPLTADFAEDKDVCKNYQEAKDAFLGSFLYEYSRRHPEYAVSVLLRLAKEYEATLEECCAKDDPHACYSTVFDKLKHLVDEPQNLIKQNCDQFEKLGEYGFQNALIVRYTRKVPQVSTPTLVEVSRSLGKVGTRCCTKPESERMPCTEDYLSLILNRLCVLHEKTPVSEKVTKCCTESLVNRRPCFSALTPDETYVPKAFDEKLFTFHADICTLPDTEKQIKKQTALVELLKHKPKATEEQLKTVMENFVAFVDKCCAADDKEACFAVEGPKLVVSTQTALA
Dual specificity protein phosphatase 3, sequence (P51452 whole entry): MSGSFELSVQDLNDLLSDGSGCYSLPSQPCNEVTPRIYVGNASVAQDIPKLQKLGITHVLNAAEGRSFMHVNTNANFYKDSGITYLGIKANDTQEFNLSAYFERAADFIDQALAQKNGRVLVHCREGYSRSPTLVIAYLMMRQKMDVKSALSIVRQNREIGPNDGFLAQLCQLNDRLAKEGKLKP

SMILES: CN(C)c1ccc(C(=O)OCC(=O)Nc2ccc(S(N)(=O)=O)cc2)cc1
- IC50 [1]: 67.7 µM (inactive)
- IC50 [2]: > 66.6 µM (inactive)
- EC50 [3]: > 53 µM (inactive)
- IC50 [4]: 8.63 µM (active)
- IC50 [5]: 4.13 µM (active)
- IC50 [6]: 7.3 µM (active)
- IC50 [7]: > 47.1 µM (inactive)
- IC50 [8]: 6.56 µM (active)
- IC50 [9]: 12.8 µM (active)

SMILES: CC(C)(C)C1CCC(OCC(O)CN2CCN(c3ccccn3)CC2)CC1 (configuration not stated)
- EC50 [10]: 0.548 µM (active)
- EC50 (Mu-type opioid receptor): 92.5 µM (inactive)

SMILES: COc1ccc2c(c1)C(=O)CC(O)(C(F)F)O2 (configuration not stated)
- EC50 (Kallikrein-7): 16.5 µM (inactive)
- IC50 [11]: 8.34 µM (not active)
- EC50 [12]: > 7.73 µM (active)

SMILES: CC1=CC2=NC(=O)/C(=C\c3ccc(-c4cccc(Cl)c4)o3)C(=N)N2O1
- IC50 [13]: 2.03 µM (active)
- IC50 [14]: 13.3 µM (inactive)

SMILES: CCN1CCc2c(sc(NC(=O)Nc3ccc(Cl)c(Cl)c3)c2C(N)=O)C1
- AC50 [15]: 15.4 µM (active)
- AC50 (cells [16]): 15.2 µM (active)
- CC50 [17]: 10.4 µM (active)
- AC50 (cells [18]): 15.3 µM (active)

SMILES: Cc1ccc2[nH]c3c(NCCCN4CCCC4=O)ncnc3c2c1
- IC50 [19]: 23.3 µM (inactive)
- IC50 [20]: 27.9 µM (inactive)
- IC50 [21]: 17.9 µM (inactive)

SMILES: CN=C(S)NNC(=O)c1cccn(Cc2ccc(Cl)c(Cl)c2)c1=O
- IC50 (Albumin): > 94 µM (inactive)

SMILES: Cc1ncc(CN2CCCC(C(=O)Nc3ccc(-c4cccc(F)c4)cc3)C2)s1 (configuration not stated)
- AC50 [22]: 6.84 µM (active)
- EC50 [23]: 0.731 µM (active)
- EC50 [24]: 3.37 µM (active)

SMILES: C[C@@H](NC(=O)C[C@@H]1CC[C@@H]2[C@H](COC[C@H](O)CN2Cc2cc(F)ccc2F)O1)c1ccccc1
- AC50 (HEK293): 5.05 µM (active)
- AC50 [25]: 5.05 µM (active)
- AC50 (HeLa): > 52 µM (inactive)

SMILES: O=c1c2cc(F)c(F)cc2nc(CN2CCNCC2)n1-c1ccccc1
- IC50 [26]: 22.4 µM (active)

SMILES: C[C@@H]1CN([C@@H](C)CO)C(=O)c2cccc(NC(=O)c3ccncc3)c2O[C@H]1CN(C)Cc1ccc(C(=O)O)cc1
- IC50 [27]: 14.1 µM (inactive)

SMILES: O=C(c1cccc(F)c1)N1CCCCN2[C@H](CO)[C@H](c3ccc(C#CC4(O)CCCC4)cc3)[C@@H]2C1
- AC50 [28]: 2.86 µM (active)

SMILES: O=C(N/N=C/c1c[nH]c2ccccc12)c1cccc(O)c1
- AC50 [29]: > 52 µM (inactive)

SMILES: C[C@H]1CN([C@@H](C)CO)C(=O)c2cccc(NC(=O)Nc3ccc(C(F)(F)F)cc3)c2O[C@@H]1CN(C)CC1CC1
- AC50 [30]: 16 µM (active)

SMILES: C=CCOc1ccc(CN2CCC(CCOc3ccccc3)(C(=O)NCC)CC2)cc1Cl
- AC50 [31]: > 52 µM (inactive)
- AC50 [32]: > 30 µM (inactive)
